The text below walks through data of US9066936B2, “Solid pharmaceutical composition comprising a benzimidazole-7-carboxylate derivative and a pH control agent” (Takeda Pharmaceutical Company Limited, priority 2007, dated 2015).

SMILES strings stand for the structures. Bounds are passed on as bounds.

In general, solubility refers to how much of the substance goes into solution per volume.

The nature of series [1]: pH of pH control agent dissolved or suspended in water. Particulars: 1% w/v in water at 25° C. Type of series: physicochemical. Here is the method:
Here, the pH of the pH control agent is measured under the following conditions. To be precise, it is a pH of a solution or suspension obtained by dissolving or suspending a pH control agent in water at a concentration of 1% w/v at 25° C.
A pH control agent was dissolved or suspended in water at a concentration of 1% w/v at 25° C., and the resulting solution or suspension was measured for pH.

Series [2] in a line: Solubility of compound A in aqueous solutions with different pHs. It is filed as physicochemical. Particulars: thermodynamic from solid, 25° C. Here is the method: An excess amount of compound A and an aqueous solution were placed in a test tube, and the mixture was shaken at 25° C. for 30 sec every 5 min. After 30 min, the solution was filtered with a 0.45 μm membrane filter to give a sample. Using the sample, the concentration of compound A was measured under the following HPLC conditions.
detector: ultraviolet absorption photometer,
measurement wavelength: 260 nm
column: YMC-Pack ProC18, 3 μm, inner diameter: 6 mm,
column temperature: 25° C. • mobile phase: 0.05 mol/L phosphate buffer (pH 3.0)/acetonitrile mixed solution (1:1)

With `O=P([O-])(O)O.[Na+]` [sodium dihydrogen phosphate], the “pH (25° C.)” value in series [1] is 4.56.
Same read-out and setting: in the case of `O=C([O-])/C=C/C(=O)O.[Na+]` [monosodium fumarate] it was 3.57.
Consider `CCOc1nc2cccc(C(=O)OCc3oc(=O)oc3C)c2n1Cc1ccc(-c2ccccc2-c2noc(=O)[nH]2)cc1.[K]` [compound A, (5-methyl-2-oxo-1,3-dioxol-4-yl)methyl 2-ethoxy-1-{[2′-(5-oxo-4,5-dihydro-1,2,4-oxadiazol-3-yl)biphenyl-4-yl]methyl}-1H-benzimidazole-7-carboxylate potassium salt], for which the solubility at 30 min is < 0.01 mg/mL in series [2] (aqueous buffer, pH 2.0 Britton Robinson buffer); < 0.01 mg/mL in series [2] (aqueous buffer, pH 3.0 Britton Robinson buffer); < 0.01 mg/mL in series [2] (aqueous buffer, pH 4.0 Britton Robinson buffer); < 0.01 mg/mL in series [2] (aqueous buffer, pH 5.0 Britton Robinson buffer); < 0.01 mg/mL in series [2] (aqueous buffer, pH 6.0 Britton Robinson buffer); 0.94 mg/mL in series [2] (aqueous buffer, pH 7.0 Britton Robinson buffer). Besides, the solubility at 30 min in series [2] (simulated gastric fluid, 0.1 mol/L HCl) is < 0.01 mg/mL.
